Assay results published in ChEMBL document CHEMBL5620406, “Synthesis and biological evaluation of novel pyrazole amides as potent mitochondrial complex I inhibitors” (Eur J Med Chem, 2023).
The source made the active and inactive calls. The calls are words filed in the database; no cut-off is given here.

Key:
Cytochrome P450 2D6 = Cytochrome P450 2D6 (Homo sapiens, UniProt P10635); assay: Inhibition of CYP2D6 in human liver microsomes incubated for 20 mins in presence of NADPH by LC/MS/MS analysis; format: ADME, Microsome
NCM460 = assay: Antiproliferative activity against human NCM460 cells assessed as inhibition of cell growth incubated for 96 hrs by MTT assay; format: functional, cell-based; settings: NCM460, 96 h
Homo sapiens = species on record: Homo sapiens; assay: Inhibition of mitochondrial complex I (unknown origin) at 1 uM incubated for 15 mins by microplate reader analysis relative to control
HCT-116 [1] = assay: Antiproliferative activity against human HCT-116 cells assessed as inhibition of cell growth incubated for 96 hrs by MTT assay; format: functional, cell-based; settings: HCT-116, 96 h
HCT-116 [2] = assay: Induction of mitochondrial dysfunction in human HCT-116 cells assessed as attenuation of oxygen consumption rate incubated for 24 hrs by Seahorse XFe24 analyzer; format: functional, cell-based; settings: dose 2-10 nM
HCT-116 [3] = assay: Induction of mitochondrial dysfunction in human HCT-116 cells assessed as attenuation of ATP coupling oxygen consumption rate incubated for 24 hrs by Seahorse XFe24 analyzer; format: functional, cell-based; settings: dose 2-10 nM
HCT-116 [4] = assay: Induction of mitochondrial dysfunction in human HCT-116 cells assessed as increase in extracellular acidification rate at 2 to 10 nM incubated for 24 hrs by Seahorse XFe24 analyzer; format: functional, cell-based; settings: dose 2-10 nM
KG-1 = assay: Induction of ROS generation in human KG-1 cells measured for 30 mins by DCFDA-staining based flow cytometry analysis; format: functional, cell-based; settings: dose <= 0.5 nM
HCT-116 [5] = assay: Induction of ROS generation in human HCT-116 cells at 0.5 nM measured for 30 mins by DCFDA-staining based flow cytometry analysis; format: functional, cell-based
HCT-116 [6] = assay: Induction of mitochondrial membrane potential depolarization in human HCT-116 cells at 2 nM incubated for 24 hrs by JC-1 staining based flow cytometry analysis; format: functional
[7] = Acute toxicity in BALB/c mouse assessed as decrease in behavioral activity at 40 mg/kg, ip measured for 24 hrs; format: organism-based; settings: in vivo
[8] = Acute toxicity in BALB/c mouse assessed as decrease in behavioral activity at 68 mg/kg, ip measured for 6 days; format: organism-based; settings: in vivo, 144 h, time 6 day
[9] = Acute toxicity in BALB/c mouse assessed as decrease in body weight at 40 mg/kg, ip measured for 24 hrs; format: organism-based; settings: in vivo
[10] = Acute toxicity in BALB/c mouse assessed as decrease in body weight at 68 mg/kg, ip measured for 6 days; format: organism-based; settings: in vivo, 144 h, time 6 day
[11] = Acute toxicity in BALB/c mouse assessed as effect on ALT level at 68 mg/kg, ip measured on day 14; format: organism-based; settings: in vivo, 336 h, time 14 day
[12] = Acute toxicity in BALB/c mouse assessed as effect on TP level at 68 mg/kg, ip measured on day 14; format: organism-based; settings: in vivo, 336 h, time 14 day
[13] = Acute toxicity in BALB/c mouse assessed as effect on ALP level at 68 mg/kg, ip measured on day 14; format: organism-based; settings: in vivo, 336 h, time 14 day
[14] = Acute toxicity in BALB/c mouse assessed as effect on BUN level at 68 mg/kg, ip measured on day 14; format: organism-based; settings: in vivo, 336 h, time 14 day
[15] = Acute toxicity in BALB/c mouse assessed as spleen damage at 40 to 68 mg/kg, ip measured on day 14 by H and E staining based analysis; format: organism-based; settings: in vivo, 336 h, dose 40-68 mg/kg, time 14 day
[16] = Acute toxicity in ip dosed BALB/c mouse assessed as maximum tolerated dose measured on day 14; format: organism-based; settings: in vivo, time 14 day
[17] = Toxicity in NOD-SCID mouse xenografted with human KG-1 cells assessed as change in body weight at 5 mg/kg, ip qd administered 5 consecutive days per week for 24 days; format: organism-based; settings: in vivo, 576 h, time 24 day
[18] = Toxicity in NOD-SCID mouse xenografted with human KG-1 cells assessed as effect on ALB level at 5 mg/kg, ip qd administered 5 consecutive days per week for 24 days; format: organism-based; settings: in vivo, 576 h, time 24 day
[19] = Toxicity in NOD-SCID mouse xenografted with human KG-1 cells assessed as effect on ALP level at 5 mg/kg, ip qd administered 5 consecutive days per week for 24 days; format: organism-based; settings: in vivo, 576 h, time 24 day
[20] = Toxicity in NOD-SCID mouse xenografted with human KG-1 cells assessed as effect on ALT level at 5 mg/kg, ip qd administered 5 consecutive days per week for 24 days; format: organism-based; settings: in vivo, 576 h, time 24 day
[21] = Toxicity in NOD-SCID mouse xenografted with human KG-1 cells assessed as effect on AST level at 5 mg/kg, ip qd administered 5 consecutive days per week for 24 days; format: organism-based; settings: in vivo, 576 h, time 24 day
[22] = Toxicity in NOD-SCID mouse xenografted with human KG-1 cells assessed as effect on CREA level at 5 mg/kg, ip qd administered 5 consecutive days per week for 24 days; format: organism-based; settings: in vivo, 576 h, time 24 day
[23] = Toxicity in NOD-SCID mouse xenografted with human KG-1 cells assessed as effect on GLB level at 5 mg/kg, ip qd administered 5 consecutive days per week for 24 days; format: organism-based; settings: in vivo, 576 h, time 24 day
[24] = Toxicity in NOD-SCID mouse xenografted with human KG-1 cells assessed as effect on TP level at 5 mg/kg, ip qd administered 5 consecutive days per week for 24 days; format: organism-based; settings: in vivo, 576 h, time 24 day
[25] = Toxicity in NOD-SCID mouse xenografted with human KG-1 cells assessed as effect on TRIGL level at 5 mg/kg, ip qd administered 5 consecutive days per week for 24 days; format: organism-based; settings: in vivo, 576 h, time 24 day
[26] = Toxicity in NOD-SCID mouse xenografted with human KG-1 cells assessed as effect on WBC count at 5 mg/kg, ip qd administered 5 consecutive days per week for 24 days; format: organism-based; settings: in vivo, 576 h, time 24 day
[27] = Toxicity in NOD-SCID mouse xenografted with human KG-1 cells assessed as effect on RBC count at 5 mg/kg, ip qd administered 5 consecutive days per week for 24 days; format: organism-based, Erythrocyte; settings: in vivo, 576 h, time 24 day
[28] = Toxicity in NOD-SCID mouse xenografted with human KG-1 cells assessed as effect on hematocrit level at 5 mg/kg, ip qd administered 5 consecutive days per week for 24 days; format: organism-based; settings: in vivo, 576 h, time 24 day
[29] = Toxicity in NOD-SCID mouse xenografted with human KG-1 cells assessed as effect on MCV level at 5 mg/kg, ip qd administered 5 consecutive days per week for 24 days; format: organism-based; settings: in vivo, 576 h, time 24 day
[30] = Toxicity in NOD-SCID mouse xenografted with human KG-1 cells assessed as effect on MCH level at 5 mg/kg, ip qd administered 5 consecutive days per week for 24 days; format: organism-based; settings: in vivo, 576 h, time 24 day
[31] = Toxicity in NOD-SCID mouse xenografted with human KG-1 cells assessed as effect on MCHC level at 5 mg/kg, ip qd administered 5 consecutive days per week for 24 days; format: organism-based; settings: in vivo, 576 h, time 24 day
[32] = Toxicity in NOD-SCID mouse xenografted with human KG-1 cells assessed as effect on heart damage at 5 mg/kg, ip qd administered 5 consecutive days per week for 24 days by H and E staining based analysis; format: organism-based; settings: in vivo, 576 h, time 24 day
[33] = Apparent permeability across apical to basolateral side in human Caco-2 cells incubated for 120 mins by LC-MS/MS analysis; format: ADME, cell-based
[34] = Apparent permeability across basolateral side to apical in human Caco-2 cells incubated for 120 mins by LC-MS/MS analysis; format: ADME, cell-based

Cytochrome P450 2D6, sequence (P10635 whole entry): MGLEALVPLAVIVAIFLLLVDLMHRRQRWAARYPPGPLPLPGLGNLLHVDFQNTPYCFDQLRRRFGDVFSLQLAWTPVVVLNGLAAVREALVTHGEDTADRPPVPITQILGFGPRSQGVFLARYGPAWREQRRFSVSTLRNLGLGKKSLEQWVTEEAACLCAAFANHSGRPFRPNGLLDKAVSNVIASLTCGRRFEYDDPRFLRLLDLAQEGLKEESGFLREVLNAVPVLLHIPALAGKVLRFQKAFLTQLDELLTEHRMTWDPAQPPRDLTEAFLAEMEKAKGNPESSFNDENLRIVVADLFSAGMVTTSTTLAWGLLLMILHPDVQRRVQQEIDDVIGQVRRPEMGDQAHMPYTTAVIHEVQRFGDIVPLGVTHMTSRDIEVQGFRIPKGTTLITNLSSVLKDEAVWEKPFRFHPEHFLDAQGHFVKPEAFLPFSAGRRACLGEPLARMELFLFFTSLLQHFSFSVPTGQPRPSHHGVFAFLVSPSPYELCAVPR

Row | Structure (SMILES) | IC50 (Cytochrome P450 2D6) | IC50 (NCM460) | inhibition (Homo sapiens) | IC50 (HCT-116 [1]) | Activity (HCT-116 [2]) | Activity (HCT-116 [3]) | Activity (HCT-116 [4]) | Activity (KG-1) | Activity (HCT-116 [5]) | Activity (HCT-116 [6]) | Activity [7] | Activity [8] | Activity [9] | Activity [10] | Activity [11] | Activity [12] | Activity [13] | Activity [14] | Activity [15] | MTD at 336 h [16] | other results
1 | Cc1cc(C(=O)Nc2ccc(C(F)(F)F)cc2)nn1Cc1cccc(N2CCN(C(=O)C3CC3)CC2)c1 | > 10000 nM | > 1000 nM | 55.4% | 0.52 nM | Dose-Dependent Effect | Dose-Dependent Effect | Active | Dose-Dependent Effect | Active | 26.5% | Non-Toxic | Non-Toxic | Non-Toxic | Non-Toxic | Non-Toxic | Non-Toxic | Non-Toxic | Non-Toxic | Non-Toxic | ~6 mg/kg | Activity [17]: Non-Toxic; Activity [18]: Non-Toxic; Activity [19]: Non-Toxic; Activity [20]: Non-Toxic; Activity [21]: Non-Toxic; Activity [22]: Non-Toxic; Activity [23]: Non-Toxic; Activity [24]: Non-Toxic; Activity [25]: Non-Toxic; Activity [26]: Non-Toxic; Activity [27]: Non-Toxic; Activity [28]: Non-Toxic; Activity [29]: Non-Toxic; Activity [30]: Non-Toxic; Activity [31]: Non-Toxic; Activity [32]: Non-Toxic; Papp A→B at 2 h [33]: 5.83 ×10⁻⁶ cm/s; Papp B→A at 2 h [34]: 3.08 ×10⁻⁶ cm/s
2 | Cc1cc(C(=O)Nc2ccc(OC(F)(F)F)cc2)nn1Cc1cccc(N2CCN(C(=O)C3CC3)CC2)c1 | > 10000 nM | > 1000 nM | 48.6% | 1.02 nM | Dose-Dependent Effect | Dose-Dependent Effect | Active | Dose-Dependent Effect | Active | 34.3% | Non-Toxic | Non-Toxic | Non-Toxic | Non-Toxic | Non-Toxic | Non-Toxic | Non-Toxic | Non-Toxic | Non-Toxic | ~6 mg/kg | Activity [17]: Non-Toxic; Activity [18]: Non-Toxic; Activity [19]: Non-Toxic; Activity [20]: Non-Toxic; Activity [21]: Non-Toxic; Activity [22]: Non-Toxic; Activity [23]: Non-Toxic; Activity [24]: Non-Toxic; Activity [25]: Non-Toxic; Activity [26]: Non-Toxic; Activity [27]: Non-Toxic; Activity [28]: Non-Toxic; Activity [29]: Non-Toxic; Activity [30]: Non-Toxic; Activity [31]: Non-Toxic; Activity [32]: Non-Toxic; Papp A→B at 2 h [33]: 5.74 ×10⁻⁶ cm/s; Papp B→A at 2 h [34]: 3.25 ×10⁻⁶ cm/s
